Results reported in PubChem BioAssay AID1963837 (Molecular Pharmacology Branch, DTP, NCI, 2024).

Test system: 843126-344-R-J1-PDC complex spheroid viability
Experiment: Anticancer human tumor 843126-344-R-J1-PDC patient-derived melanoma cell line growth inhibition [POLQ]
Conditions: for IC50: curve of first compound; for viability, T/C: stronger effect = lower value
Method in brief: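 Growth inhibition in 3D: complex spheroids (tumor PDC, HUVEC, MSC) treated with POLQ inhibitor combinations; where Cmax unknown, highest tested concentration 10 microM, except SN-38 at 1 microM.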

[1] = second compound 0.0316 µM, first compound 0.0316 µM
[2] = second compound 0.0316 µM, first compound 0.1 µM
[3] = second compound 0.0316 µM, first compound 0.316 µM
[4] = second compound 0.0316 µM, first compound 1 µM
[5] = second compound 0.0316 µM, first compound 3.16 µM
[6] = second compound 0.0316 µM, first compound 10 µM
[7] = second compound 0.1 µM, first compound 0.0316 µM
[8] = second compound 0.1 µM, first compound 0.1 µM
[9] = second compound 0.1 µM, first compound 0.316 µM
[10] = second compound 0.1 µM, first compound 1 µM
[11] = second compound 0.1 µM, first compound 3.16 µM
[12] = second compound 0.1 µM, first compound 10 µM
[13] = second compound 0.316 µM, first compound 0.0316 µM
[14] = second compound 0.316 µM, first compound 0.1 µM
[15] = second compound 0.316 µM, first compound 0.316 µM
[16] = second compound 0.316 µM, first compound 1 µM
[17] = second compound 0.316 µM, first compound 3.16 µM
[18] = second compound 0.316 µM, first compound 10 µM
[19] = second compound 1 µM, first compound 0.0316 µM
[20] = second compound 1 µM, first compound 0.1 µM
[21] = second compound 1 µM, first compound 0.316 µM
[22] = second compound 1 µM, first compound 1 µM
[23] = second compound 1 µM, first compound 3.16 µM
[24] = second compound 1 µM, first compound 10 µM
[25] = second compound 3.16 µM, first compound 0.0316 µM
[26] = second compound 3.16 µM, first compound 0.1 µM
[27] = second compound 3.16 µM, first compound 0.316 µM
[28] = second compound 3.16 µM, first compound 1 µM
[29] = second compound 3.16 µM, first compound 3.16 µM
[30] = second compound 3.16 µM, first compound 10 µM
[31] = second compound 10 µM, first compound 0.0316 µM
[32] = second compound 10 µM, first compound 0.1 µM
[33] = second compound 10 µM, first compound 0.316 µM
[34] = second compound 10 µM, first compound 1 µM
[35] = second compound 10 µM, first compound 3.16 µM
[36] = second compound 10 µM, first compound 10 µM
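Wherever viability, T/C is given: spheroids exposed to drugs for seven days before readout.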

Compound: Nc1ccn(C2OC(CO)C(O)C2(F)F)c(=O)n1 (centres undefined) + COC1C(OC(N)=O)C(O)C(Oc2ccc3c(O)c(NC(=O)c4ccc(O)c(CC=C(C)C)c4)c(=O)oc3c2C)OC1(C)C
- IC50 (second compound 0.0316 µM): < 0.0316 µM
- IC50 (second compound 0.1 µM): < 0.0316 µM
- IC50 (second compound 0.316 µM): < 0.0316 µM
- IC50 (second compound 1 µM): < 0.0316 µM
- IC50 (second compound 3.16 µM): < 0.0316 µM
- IC50 (second compound 10 µM): < 0.0316 µM
- viability, T/C [1]: 33.5%
- viability, T/C [2]: 34.9%
- viability, T/C [3]: 36.8%
- viability, T/C [4]: 36.1%
- viability, T/C [5]: 41.7%
- viability, T/C [6]: 34.7%
- viability, T/C [7]: 41.3%
- viability, T/C [8]: 36.5%
- viability, T/C [9]: 34.9%
- viability, T/C [10]: 37.8%
- viability, T/C [11]: 37.3%
- viability, T/C [12]: 33.7%
- viability, T/C [13]: 38.6%
- viability, T/C [14]: 36.4%
- viability, T/C [15]: 39.4%
- viability, T/C [16]: 32.9%
- viability, T/C [17]: 36.9%
- viability, T/C [18]: 33.4%
- viability, T/C [19]: 38.9%
- viability, T/C [20]: 36%
- viability, T/C [21]: 39.3%
- viability, T/C [22]: 31.7%
- viability, T/C [23]: 40%
- viability, T/C [24]: 35.7%
- viability, T/C [25]: 43.5%
- viability, T/C [26]: 34.6%
- viability, T/C [27]: 38%
- viability, T/C [28]: 30.8%
- viability, T/C [29]: 39.5%
- viability, T/C [30]: 31.2%
- viability, T/C [31]: 38.4%
- viability, T/C [32]: 37.8%
- viability, T/C [33]: 38%
- viability, T/C [34]: 32.8%
- viability, T/C [35]: 32%
- viability, T/C [36]: 32%

Compound: CC1COCCN1c1cc(C2(S(C)(=N)=O)CC2)nc(-c2ccnc3[nH]ccc23)n1 (centres undefined) + COC1C(OC(N)=O)C(O)C(Oc2ccc3c(O)c(NC(=O)c4ccc(O)c(CC=C(C)C)c4)c(=O)oc3c2C)OC1(C)C
- IC50 (second compound 0.0316 µM): > 10 µM
- IC50 (second compound 0.1 µM): > 10 µM
- IC50 (second compound 0.316 µM): > 10 µM
- IC50 (second compound 1 µM): 8.62 µM
- IC50 (second compound 3.16 µM): 9.28 µM
- IC50 (second compound 10 µM): 9.69 µM
- viability, T/C [1]: 99%
- viability, T/C [2]: 98%
- viability, T/C [3]: 110%
- viability, T/C [4]: 99.6%
- viability, T/C [5]: 59.2%
- viability, T/C [6]: 55.9%
- viability, T/C [7]: 90.9%
- viability, T/C [8]: 80.3%
- viability, T/C [9]: 97.6%
- viability, T/C [10]: 80.6%
- viability, T/C [11]: 65.7%
- viability, T/C [12]: 55.3%
- viability, T/C [13]: 103%
- viability, T/C [14]: 79.8%
- viability, T/C [15]: 81.2%
- viability, T/C [16]: 89%
- viability, T/C [17]: 56.9%
- viability, T/C [18]: 53.5%
- viability, T/C [19]: 84.6%
- viability, T/C [20]: 88.3%
- viability, T/C [21]: 78.5%
- viability, T/C [22]: 96.3%
- viability, T/C [23]: 69.2%
- viability, T/C [24]: 47.1%
- viability, T/C [25]: 87.1%
- viability, T/C [26]: 89.1%
- viability, T/C [27]: 89%
- viability, T/C [28]: 79.5%
- viability, T/C [29]: 74%
- viability, T/C [30]: 48%
- viability, T/C [31]: 94.8%
- viability, T/C [32]: 101%
- viability, T/C [33]: 74.1%
- viability, T/C [34]: 89.7%
- viability, T/C [35]: 69.3%
- viability, T/C [36]: 48.7%
